Patent publication US8450479B2, “3-substituted-4-oxo-3,4-dihydro-imidazo[5,1-d][1,2,3,5-tetrazine-8-carboxylic acid amides and their use” (Pharminox Limited, priority 2007, dated 2013)
Values joined by “and” are separate entries in the source; they are usually repeats but may differ in a detail not shown here. Identical values can stand only once. Like-named read-outs stand apart in the source and are kept apart here.

Tests used:
Format in all cases: cell-based
Glioma SNB19M (MGMT+) [1] = assay: Clonogenic survival assay (Table 14, assay not named there)
Method: (§1) A clonogenic assay, which measures tumour cell survival and subsequent proliferative ability following drug exposure was used to verify that the cells remaining metabolically active following treatment with TMZ and new derivatives. See, e.g., Brown, J. M., et al., 1999, “Apoptosis, p53, and tumor cell sensitivity to anticancer agents”, Cancer Research, Vol. 59, No. 7, pp. 1391-1399.
(§2) Exponentially growing cells were seeded in triplicate at a density of 200 cells/well in 6 well plate and allowed to attach overnight and then exposed to increasing concentration of TMZ and test compounds (0, 5, 10, 100, 500, 1000 μM). After 18 hours, the plates were changed to drug free media and left to grow in the 37° C., 5% CO2 incubator. After 14 days, the plates were rinsed in PBS and fixed with pre-chilled methanol in room temperature for 20 minutes, and then stained with 0.5% methylene blue in 1:1 methanol/H2O (v/v) for 10 minutes and thoroughly washed in distilled water and air dried. Cell colonies containing >30 cells were counted. Growth inhibition by TMZ and test compounds was estimated by dividing the mean number of colonies under drug treatment by the mean number of colonies without drug treatment.

Glioma SNB19V (MGMT−) [2] = assay: as above
Method: as §1, §2

Glioma SNB19M (MGMT+) [3] = assay: MTT assay for 7-day toxicity assay
How it was run: (§3)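 MGMT-transfected or vector-control glioma cells were seeded at 650 cells/well, attached overnight, and exposed for 7 days at 37 °C to compound at final 0.5–1000 μM. Viability was read by MTT (0.4 mg/mL, 4 h) formazan absorbance, with a day-0 plate included.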

Glioma SNB19V (MGMT−) [4] = assay: MTT assay for 7-day toxicity assay
How it was run: as §3

Glioma U373M (MGMT+) = assay: MTT assay for 7-day toxicity assay
How it was run: as §3

Glioma U373V (MGMT low) = assay: MTT assay for 7-day toxicity assay
How it was run: as §3

[5] = 168 h, Glioma SNB19M (MGMT+), 7-day MTT, single determinations
[6] = Glioma SNB19V (MGMT−), 7-day MTT, single determinations
[7] = 168 h, Glioma SNB19M (MGMT+), 7-day MTT, single determinations, read-out: GI50
[8] = Glioma SNB19M (MGMT+), 7-day MTT, single determinations, read-out: GI50
[9] = 168 h, Glioma U373M (MGMT+), 7-day MTT, single determinations, read-out: GI50
[10] = Glioma U373M (MGMT+), 7-day MTT, single determinations, read-out: GI50
[11] = Glioma SNB19M (MGMT+), read-out: GI50
[12] = Glioma U373M (MGMT+), read-out: GI50
[13] = Glioma U373V (MGMT low), read-out: GI50
[14] = Glioma SNB19V (MGMT−), read-out: GI50

Which GI50 (Glioma SNB19M (MGMT+) [1]) does the source give for `C[C@H](c1ccccc1)n1nnc2c(C(N)=O)ncn2c1=O` [BB-001, (R)-3-(-1-Phenylethyl)-8-carbamoylimidazotetrazin-4-one] here?
Its GI50 is 8.5 µM.

And the GI50 (Glioma SNB19V (MGMT−) [2])?
Its GI50 is 22.2 µM.

What about the GI50 (Glioma SNB19M (MGMT+) [3]; [5]) of the same compound?
Its GI50 is 46.1 µM.

And the GI50 (Glioma SNB19M (MGMT+) [3]; Glioma SNB19M (MGMT+), 7-day MTT, single determinations)?
Its GI50 is 53.4 µM.

And the GI50 (Glioma SNB19V (MGMT−) [4]; 168 h, Glioma SNB19V (MGMT−), 7-day MTT, single determinations)?
Its GI50 is 33.6 µM.

And the GI50 (Glioma SNB19V (MGMT−) [4]; [6])?
The GI50 was 31.8 µM.

What about the GI50 (Glioma U373M (MGMT+); 168 h, Glioma U373M (MGMT+), 7-day MTT, single determinations) of the same compound?
The GI50 was 67.1 µM.

And the GI50 (Glioma U373M (MGMT+); Glioma U373M (MGMT+), 7-day MTT, single determinations)?
Its GI50 is 79.6 µM.

And the GI50 (Glioma U373V (MGMT low); 168 h, Glioma U373V (MGMT low), 7-day MTT, single determinations)?
Its GI50 is 49 µM.

What about the GI50 (Glioma U373V (MGMT low); Glioma U373V (MGMT low), 7-day MTT, single determinations) of the same compound?
The GI50 was 71.3 µM.

With `C#CCn1nnc2c(C(N)=O)ncn2c1=O` [EE-001, 3-Propargyl-8-carbamoylimidazotetrazin-4-one] as the compound, how does the GI50 (Glioma SNB19M (MGMT+) [1]) read?
Its GI50 is 7.8 µM.

What about the GI50 (Glioma SNB19V (MGMT−) [2]) of the same compound?
The GI50 was 7 µM.

And the GI50 (Glioma SNB19M (MGMT+) [3]; [7])?
The GI50 was 26.9 µM.

What about the GI50 (Glioma SNB19M (MGMT+) [3]; [8]) of the same compound?
Its GI50 is 30.6 µM and 41.6 µM and 52.1 µM.

And the GI50 (Glioma U373M (MGMT+); [9])?
The GI50 was 45.1 µM.

And the GI50 (Glioma U373M (MGMT+); [10])?
The GI50 was 42.8 µM and 24.6 µM and 31.7 µM.

`CCOC(=O)Cn1nnc2c(C(N)=O)ncn2c1=O` [PX-016] was tested. Which GI50 (Glioma SNB19M (MGMT+) [3]; [7]) did it give?
The GI50 was 66.7 µM.

What about the GI50 (Glioma SNB19M (MGMT+) [3]; [8]) of the same compound?
The GI50 was 54 µM and 61.7 µM and 61.8 µM.

What about the GI50 (Glioma SNB19V (MGMT−) [4]; 168 h, Glioma SNB19V (MGMT−), 7-day MTT, single determinations, read-out: GI50) of the same compound?
The GI50 was 55.2 µM.

And the GI50 (Glioma SNB19V (MGMT−) [4]; Glioma SNB19V (MGMT−), 7-day MTT, single determinations, read-out: GI50)?
The GI50 was 48.7 µM and 57.3 µM and 48.4 µM.

And the GI50 (Glioma U373M (MGMT+); [9])?
Its GI50 is 49.6 µM.

And the GI50 (Glioma U373M (MGMT+); [10])?
The GI50 was 62.5 µM and 54.7 µM.

What about the GI50 (Glioma U373V (MGMT low); 168 h, Glioma U373V (MGMT low), 7-day MTT, single determinations, read-out: GI50) of the same compound?
The GI50 was 49.9 µM.

What about the GI50 (Glioma U373V (MGMT low); Glioma U373V (MGMT low), 7-day MTT, single determinations, read-out: GI50) of the same compound?
Its GI50 is 59.6 µM and 73.8 µM and 69.5 µM.

For `COCn1nnc2c(C(N)=O)ncn2c1=O` [PX-020], which GI50 (Glioma SNB19M (MGMT+) [1]) is on record?
Its GI50 is 30 µM.

What about the GI50 (Glioma SNB19V (MGMT−) [2]) of the same compound?
Its GI50 is 38.6 µM.

And the GI50 (Glioma SNB19M (MGMT+) [3]; [11])?
The GI50 was 28.7 µM and 26.6 µM and 43.4 µM.

What about the GI50 (Glioma U373M (MGMT+); [12]) of the same compound?
Its GI50 is 26.5 µM and 39.6 µM.

What about the GI50 (Glioma U373V (MGMT low); [13]) of the same compound?
Its GI50 is 21.3 µM and 22 µM and 30.2 µM and 30.4 µM.

What does the source list for `C[Si](C)(C)CCOCn1nnc2c(C(N)=O)ncn2c1=O` [PX-021]?
GI50 (Glioma SNB19M (MGMT+) [1]): 22.1 µM; GI50 (Glioma SNB19V (MGMT−) [2]): 43.3 µM; GI50 (Glioma SNB19M (MGMT+) [3]; [11]): 26.7 µM and 29.1 µM; GI50 (Glioma SNB19V (MGMT−) [4]; [14]): 36 µM and 26.9 µM and 26.8 µM; GI50 (Glioma U373M (MGMT+); [12]): 27.2 µM and 23.6 µM and 21.9 µM; GI50 (Glioma U373V (MGMT low); [13]): 28.2 µM and 22.3 µM and 25.5 µM

Which GI50 (Glioma SNB19M (MGMT+) [1]) does the source give for `NC(=O)c1ncn2c(=O)n(CCl)nnc12` [PX-030] here?
Its GI50 is 31.5 µM.

What about the GI50 (Glioma SNB19V (MGMT−) [2]) of the same compound?
The GI50 was 38.9 µM.

What about the GI50 (Glioma SNB19M (MGMT+) [3]; [11]) of the same compound?
The GI50 was 36.6 µM and 25.4 µM.

And the GI50 (Glioma SNB19V (MGMT−) [4]; [14])?
The GI50 was 44.6 µM and 24.6 µM.

And the GI50 (Glioma U373M (MGMT+); [12])?
Its GI50 is 23.7 µM and 25.1 µM.

And the GI50 (Glioma U373V (MGMT low); [13])?
Its GI50 is 34.8 µM and 23.8 µM.

What does the source list for `Cn1nnc2c(C(N)=O)ncn2c1=O` [TMZ, 3-Methyl-4-oxo-3,4-dihydro-imidazo[5,1-d][1,2,3,5]tetrazine-8-carboxylic acid amide, reference compound]?
GI50 (Glioma SNB19M (MGMT+) [1]): 875 µM; GI50 (Glioma SNB19M (MGMT+) [1]; listed as Temozolomide): 834 µM; GI50 (Glioma SNB19V (MGMT−) [2]): 32.2 µM; GI50 (Glioma SNB19M (MGMT+) [3]; [5]): 464 µM; GI50 (Glioma SNB19M (MGMT+) [3]; Glioma SNB19M (MGMT+)): 470 µM; GI50 (Glioma SNB19M (MGMT+) [3]; read-out: TMZ GI50 Average, Glioma SNB19M (MGMT+), average of Table 1): 470 µM; GI50 (Glioma SNB19V (MGMT−) [4]; Glioma SNB19V (MGMT−)): 35.7 µM; GI50 (Glioma SNB19V (MGMT−) [4]; [6]): 27.6 µM; GI50 (Glioma SNB19V (MGMT−) [4]; read-out: TMZ GI50 Average, Glioma SNB19V (MGMT−), average of Table 1): 35.7 µM; GI50 (Glioma U373M (MGMT+); Glioma U373M (MGMT+)): 369 µM; GI50 (Glioma U373M (MGMT+); read-out: TMZ GI50 Average, Glioma U373M (MGMT+), average of Table 1): 369 µM; GI50 (Glioma U373V (MGMT low); Glioma U373V (MGMT low)): 68 µM; GI50 (Glioma U373V (MGMT low); read-out: TMZ GI50 Average, Glioma U373V (MGMT low), average of Table 1): 68 µM

`C[S+]([O-])Cn1nnc2c(C(N)=O)ncn2c1=O` (centres unmarked) [UU-003, 3-Methanesulfinylmethyl-4-oxo-3,4-dihydro-imidazo[5,1-d][1,2,3,5]tetrazine-8-carboxylic acid amide] was tested. Which GI50 (Glioma SNB19V (MGMT−) [4]; [14]) did it give?
Its GI50 is 30.3 µM and 38.1 µM and 25.3 µM and 21.8 µM.

What about the GI50 (Glioma U373M (MGMT+); [12]) of the same compound?
The GI50 was 4.6 µM and 8.6 µM and 7.6 µM and 8.2 µM.
